Laboratory results reported in patent publication US6207655A, “Bis-phosphonate confugates with alkylating moieties having antitumor activity” (Novuspharma S.p.A., priority 1997, dated 2001).

Assays:
[1] = test system: murine breast carcinoma Walker 256/B; assay: antitumor activity in vivo against Walker 256/B implanted intratibia (TWI%); design: species or system murine tumor; male rats CD1; settings: it/iv, days 1, 4, 7; for TWI % (tumor weight inhibition %): measured day 14; for Tox: Walker 256/B
Text: The compounds of the invention have been tested "in vivo" against the murine breast carcinoma Walker 256/B implanted intratibia (it). After inoculation into the bone marrow cavity of the tibia, this tumor grows inside the bone causing osteolytic lesions, paraneoplastic hypercalcaemia and by invading the surrounding tissues it forms a measurable tumor mass. It is therefore possible to determine both the antitumor activity on the extraosseous tumor and the anti-osteolytic effect (Cancer, 72(1), 91 (1993)).
The Walker 256/B tumor was provided by NCI Frederick Cancer Facility and was maintained in male rats CD1 by means of subcutaneous transplantation of tumor fragments of about 1 cm diameter every 10 days.
To perform the experiment, each rat was injected it with 2.5×10^6tumor cells; all the animals were anesthetized with a mixture of 10 mg/kg of Ketalar (Park-Davis) and 5 mg/kg of Rompun (Bayer). After implantation inside the tibia, the tumor grows causing osteolytic lesions associated with an increased activity of the osteoclasts. To obtain an injectable cell suspension, the tumor fragments were decomposed by means of enzymatic digestion with type IV collagenases (Sigma) at a concentration of 400 U/ml for 20 minutes at 37° C.
The compounds of the invention have been administered i.v. at days 1, 4 and 7 after the tumor transplantation. The extraosseous tumor mass has been measured at day 14 after tumor transplantation. The antitumor activity was determined as TWI% (tumor weight inhibition %) calculated according to the following formula:
TWI%=(100-TW meantreated animals /TW meancontrols)×100
wherein the TW for each animal is given by the formula: […]
in which a and b are respectively the maximum and minimum diameter of the tumor mass, expressed in mm.

[2] = test system: human multiple myeloma HS-Sultan cells; assay: experimental model of human multiple myeloma HS-Sultan, mean survival time; assay type: in vivo, human cells in SCID rats; settings: iv/iv, days +15, 18, 21; for TMS (MST = Mean Survival Time in days from the tumor inoculation): controls: MST 33-37; for Tox: HS-Sultan
Procedure: (§1) The experiment is performed by inoculating intravenously (i.v.) the human multiple myeloma HS-Sultan cells in SCID rats (immunodeficient rats) at day 0, followed by treatment i.v. with a compound of the invention at days 15, 18 and 21.
The activity of the compounds of the invention was evaluated in relationship with the following parameters:
Mean Survival Time (MST) in comparison with the not treated rats (which have a mean survival time of 30 days after tumor inoculation);

[3] = test system: human multiple myeloma HS-Sultan cells; assay: histopathological examination of tumor infiltration in the human multiple myeloma model; assay type: in vivo, human cells in SCID rats; design: key to tumor infiltration score: -: absence of infiltration; +: slight infiltration; ++: middle to high infiltration; settings: for tumor infiltration score: 38 days from the treatment; for effect on the tumor infiltration (in words): human multiple myeloma model
Procedure: as §1
evaluation of histological parameters (bone marrow invasion and degree of osteolytic lesions).

multiple myeloma = settings: background statement; cited from earlier work

O=C(C=C(C(=O)O)C(P(=O)(O)O)P(=O)(O)O)NC(Cc1ccc(N(CCCl)CCCl)cc1)C(=O)O (stereo not drawn) [compound (B)]
TWI % (tumor weight inhibition %) ([1]; 20 mg/kg): 89%
Tox ([1]; 20 mg/kg): 0/8
TMS (MST = Mean Survival Time in days from the tumor inoculation) ([2]; 60 mg/kg): 70 days
Tox ([2]; 60 mg/kg): 1/6
tumor infiltration score ([3]; Backbone (soft tissues), (B) oO mg/kg): -
tumor infiltration score ([3]; Backbone, (B) oO mg/kg): -
tumor infiltration score ([3]; Hind limbs (soft tissues), (B) oO mg/kg): -
tumor infiltration score ([3]; Hind limbs, (B) oO mg/kg): -
tumor infiltration score ([3]; Kidneys, (B) oO mg/kg): +
tumor infiltration score ([3]; Sternum, (B) oO mg/kg): -
effect on the tumor infiltration (in words) [3]: selective inhibitory effect on the tumor infiltration

N[C@@H](Cc1ccc(N(CCCl)CCCl)cc1)C(=O)O [melphalan]
TWI % (tumor weight inhibition %) ([1]; 2.8 mg/kg): 71%
Tox ([1]; 2.8 mg/kg): 11/144
activity against the multiple myeloma (in words) (multiple myeloma): exploits activity against the multiple myeloma
cure of the secondary bone tumor (in words) (multiple myeloma): not able to cure the secondary bone tumor
TMS (MST = Mean Survival Time in days from the tumor inoculation) ([2]; 6 mg/kg): 59 days
Tox ([2]; 6 mg/kg): 1/5
tumor infiltration score ([3]; Backbone (soft tissues), melfalan 6 mg/kg): -
tumor infiltration score ([3]; Backbone, melfalan 6 mg/kg): +
tumor infiltration score ([3]; Hind limbs (soft tissues), melfalan 6 mg/kg): -
tumor infiltration score ([3]; Hind limbs, melfalan 6 mg/kg): +
tumor infiltration score ([3]; Kidneys, melfalan 6 mg/kg): -
tumor infiltration score ([3]; Sternum, melfalan 6 mg/kg): +
effect on the tumor infiltration (in words) [3]: cannot be seen
